The target in assay [1] is PI3 kinase isoform δ (Homo sapiens, UniProt O00329). The experiment in a line: PI3 Kinase TR-FRET assay, isoform δ. The class given is biochemical. Particulars: read-out: inhibition of PI3 kinase isoform δ, IC50. The procedure:
The ability of compounds of the invention to inhibit PI3K activity was determined in a homogeneous TR-FRET assay using a PI3K assay kit (Millipore, USA; cat #33-016) according to manufacturer's instructions. PI3-Kinases (isoforms α, β, γ and δ) catalyze the phosphorylation of phosphatidylinositol, PIP2 to PIP3 in the presence of ATP and Mg^2+. The PIP3 product is detected by displacement of biotin-PIP3 from an energy transfer complex consisting of Europium labeled anti-GST monoclonal antibody, a GST-tagged PH domain, biotinylated PIP3 and Streptavidin-APC. Excitation of Europium in the complex results in an energy transfer to the APC and a fluorescence emission at 665 nm. The PIP3 product displaces biotin-PIP3 from the complex resulting in a loss of energy transfer and thus a decrease in signal.
To test for the ability of compounds to inhibit the activity of PI3Kα (wild-type), exemplary compounds of formula (I) were dissolved in DMSO and directly distributed into 384-well plates at a volume of 0.5 μL. 14.5 μL of P110/P85α/PIP2 mixture in buffer (obtained from the Millipore kit) containing MgCl2 (40 mM) and DTT (5 mM) was added to compound wells and incubated for 60 min at room temperature. P110/P85α was expressed in SF9 insect cells and purified nickel column extraction. Five ng of wild-type P110/P85α was used in the assay. The kinase reaction was started by the addition of ATP. The assay concentrations of both PIP2 and ATP were 10 μM. The reaction mixture was incubated for 30 min at room temperature and was terminated by the addition of stop mix and detection mix. Fluorescence was measured at 615 and 665 nm upon excitation at 340 nm in a Victor™ V5 fluorometer (Perkin Elmer, USA). The fluorescence emission ratio at 665 to 615 nm, proportional to the kinase activity, was plotted against the compound concentration to generate dose-response curves and IC50 values were determined using GraphPad Prism® 5 software.
The activity of PI3 kinase isoforms β, γ and δ were assayed in a similar manner to the assay protocol described above for PI3Kα, by substituting the appropriate p110/p85 isoform for the p110α/p85α. Compounds of formula (I) caused inhibition of PI3 kinase isoforms β, γ and δ as determined by these assays. For example, the compounds of examples 3, 51, 54, 111, 113, 115, and 253 each caused inhibition of PI3 kinase isoform β with IC50 values <50 nM. The compounds of examples 104, 133, 146 and 152 each caused inhibition of PI3 kinase isoform β with IC50 values <500 nM. The compounds of examples 3, 51, 54, 104, 111, 113, 115, 133, 253, and 152 each caused inhibition of PI3 kinase isoform γ with IC50 values <500 nM. […] The compounds of examples 2, 3, 51, 54, 111, 113, and 253 each caused inhibition of PI3 kinase isoform […] with IC50 values >1 μM.

Assay [2] concerns pS6RP in PC3 tumor. The experiment in a line: In vivo PK/PD study, PC3 tumor bearing mice, pS6RP. The conditions noted are these: Mus musculus. On the procedure: (§1) PC3 cells were cultured at 37° C. in a 5% CO2 incubator using Hams F12 K medium. Ten million (10^7) cells were injected subcutaneously to the right flank region of athymic male mice (Harlan, age: 6-7 weeks, weight: about 20 g). Tumor bearing mice were randomized when the tumor volume reached about 250 mm^3 and three mice were used per each time point. Test compounds of formula (I) were formulated in 40% HPCD in 1×PBS, pH 7.4 and dosed orally at 50 mg/kg single dose (dose volume−10 mL/kg). Plasma and tumor samples were collected at 0 (vehicle control animals), 1, 4 and 24 hours post dosing. Blood was drawn (retro orbital) to a tube containing 0.2% EDTA for plasma collection. The tumor was excised from the mouse and immediately frozen in liquid nitrogen for PD analysis. Tumor and plasma drug concentrations were measured for PK analysis using LC-MS.
(§2) Snap frozen tumor samples were pulverized in a mortar (Belart) containing liquid nitrogen and tumor powder was stored at −80° C. until analysis. Pre coated ELISA kits (Cell Signaling Technology; pAKT(T308), CST#7135; pAKT(5473), CST#7134 and pS6RP, CST#7205) were used for PD analysis. Tumor powder was transferred to Eppendorf® tubes and lysis buffer (1 mL) was added to the powder. Protease and phosphatase inhibitors (SIGMA) and phenylmethanesulfonylfluoride (PMSF) were added to tumor powder and mixed by vortexing followed by sonication (15 sec). Samples were kept on an ice bath for 30 min. Supernatant was separated after centrifugation at 10,000 rpm for 20 min at 4° C. Supernatant was re-centrifuged and fresh supernatant was aliquoted to different tubes. Total protein was estimated using a BCA kit (Thermo Scientific) and 50 μg total protein was loaded to each well. ELISA analysis was carried out as per manufacturer's instructions. The detection for pAKT was based on chemiluminescence and pS6RP was based on absorbance. Qualitative assessments of the suppression of pAKT(T308), pAKT(5473), and pS6RP were also carried out by standard Western blot analyses.
For example, the compound of Example 1, at 50 mg/kg po, caused about 50% inhibition of pAkt(5473) at 1 and 4 hours and >50% inhibition of pS6RP at 1, 4 and 24 hours. Also, the compound of Example 2, at 50 mg/kg po, caused about 25-30% inhibition of pAkt(5473) at 4 and 24 hours and >50% inhibition of pS6RP at 1, 4 and 24 hours. The compound of example 51, at 30 mg/kg po, caused >50% inhibition of pS6RP at 2, 4 and 24 hours. Also, the compounds of examples 133, 146, 147, and 228, at 50 mg/kg po, each caused >50% inhibition of pS6RP at 3 and 8 hours.

The test system of assay [3] is pS6RP in BT474 tumor. The experiment in a line: In vivo PK/PD study, BT474 tumor-bearing xenograft mice, pS6RP. The conditions noted are these: for suppression of pS6RP in tumor tissue samples by Western blot: 2 weeks at 40 mg/kg bid po. On the procedure: as §1
as §2, with “ELISA analysis was carried out as per manufacturer's instructions.” left out, “Qualitative assessments of the suppression of pAKT(T308), pAKT(5473), and pS6RP were also carried out by standard Western blot analyses.” left out
(§3) In vivo pharmacokinetic/pharmacodynamic (PK/PD) studies were also carried out using BT474 tumor cells and the corresponding tumor-bearing xenograft mice, and compounds of the invention were determined to be active in this assay. […]

The test system of assay [4] is pAkt(T308) in BT474 tumor. The experiment in a line: In vivo PK/PD study, BT474 tumor-bearing xenograft mice, pAkt(T308). The conditions noted are these: 2 weeks at 40 mg/kg bid po. The procedure: as §1
(§4) Snap frozen tumor samples were pulverized in a mortar (Belart) containing liquid nitrogen and tumor powder was stored at −80° C. until analysis. […] The detection for pAKT was based on chemiluminescence and pS6RP was based on absorbance. […]
as §3

The test system of assay [5] is pAkt(5473) in BT474 tumor. The experiment in a line: In vivo PK/PD study, BT474 tumor-bearing xenograft mice, pAkt(5473). Particulars: 2 weeks at 40 mg/kg bid po. On the procedure:
as §1, §4, §3

Assay [6] deals with pAKT(5473) in PC3 tumor. The assay can be described thus: In vivo PK/PD study, PC3 tumor bearing mice, pAkt(5473). Particulars: Mus musculus, 50 mg/kg po single dose. On the procedure: as §1
(§5) Snap frozen tumor samples were pulverized in a mortar (Belart) containing liquid nitrogen and tumor powder was stored at −80° C. until analysis. Pre coated ELISA kits (Cell Signaling Technology; pAKT(T308), CST#7135; pAKT(5473), CST#7134 and pS6RP, CST#7205) were used for PD analysis. Tumor powder was transferred to Eppendorf® tubes and lysis buffer (1 mL) was added to the powder. […] The detection for pAKT was based on chemiluminescence and pS6RP was based on absorbance. […]

The subject of assay [7] is pAKT(T308) in PC3 tumor. The experiment in a line: In vivo PK/PD study, PC3 tumor bearing mice, pAkt(T308) Western blot. The conditions noted are these: 50 mg/kg po, at 8 hours. On the procedure:
as §1, §5

The mark [8] stands for this setting: 50 mg/kg po single dose, at 1, 4 and 24 hours.

Results on five compounds are retold here after US9115092B2, “Substituted quinazoline and pyrido-pyrimidine derivatives” (Asana Biosciences, LLC, priority 2010, dated 2015).

PI3 kinase isoform δ, sequence (O00329 whole entry, the tested form may be a part, canonical isoform): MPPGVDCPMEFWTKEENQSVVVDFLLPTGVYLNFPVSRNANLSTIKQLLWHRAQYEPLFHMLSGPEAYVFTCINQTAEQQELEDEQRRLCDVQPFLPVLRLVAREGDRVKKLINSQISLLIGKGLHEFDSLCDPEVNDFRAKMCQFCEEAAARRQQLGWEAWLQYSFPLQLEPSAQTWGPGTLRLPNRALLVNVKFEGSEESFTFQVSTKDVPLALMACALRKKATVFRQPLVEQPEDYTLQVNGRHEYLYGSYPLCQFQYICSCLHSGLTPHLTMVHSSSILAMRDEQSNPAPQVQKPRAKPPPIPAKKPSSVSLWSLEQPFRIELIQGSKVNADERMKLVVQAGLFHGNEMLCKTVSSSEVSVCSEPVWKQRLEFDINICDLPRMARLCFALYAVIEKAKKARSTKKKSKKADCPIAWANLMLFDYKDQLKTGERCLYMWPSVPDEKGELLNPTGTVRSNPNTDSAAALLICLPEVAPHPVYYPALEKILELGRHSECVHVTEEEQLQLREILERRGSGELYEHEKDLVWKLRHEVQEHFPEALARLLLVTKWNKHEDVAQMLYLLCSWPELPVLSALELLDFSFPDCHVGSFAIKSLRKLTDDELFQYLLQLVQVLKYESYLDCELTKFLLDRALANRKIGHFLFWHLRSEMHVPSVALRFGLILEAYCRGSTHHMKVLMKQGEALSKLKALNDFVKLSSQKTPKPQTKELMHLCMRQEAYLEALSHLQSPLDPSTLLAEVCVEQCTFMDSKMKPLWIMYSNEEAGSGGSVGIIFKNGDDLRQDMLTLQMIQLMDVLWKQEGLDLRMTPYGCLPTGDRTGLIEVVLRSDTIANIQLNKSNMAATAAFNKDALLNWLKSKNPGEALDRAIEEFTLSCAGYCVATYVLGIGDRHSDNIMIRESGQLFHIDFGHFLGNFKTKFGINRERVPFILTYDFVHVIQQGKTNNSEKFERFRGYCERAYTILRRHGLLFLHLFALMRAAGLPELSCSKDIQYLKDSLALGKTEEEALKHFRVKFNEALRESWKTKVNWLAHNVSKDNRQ
PI3 kinase isoform δ, sequence (P27986 whole entry partner, the tested form may be a part, canonical isoform): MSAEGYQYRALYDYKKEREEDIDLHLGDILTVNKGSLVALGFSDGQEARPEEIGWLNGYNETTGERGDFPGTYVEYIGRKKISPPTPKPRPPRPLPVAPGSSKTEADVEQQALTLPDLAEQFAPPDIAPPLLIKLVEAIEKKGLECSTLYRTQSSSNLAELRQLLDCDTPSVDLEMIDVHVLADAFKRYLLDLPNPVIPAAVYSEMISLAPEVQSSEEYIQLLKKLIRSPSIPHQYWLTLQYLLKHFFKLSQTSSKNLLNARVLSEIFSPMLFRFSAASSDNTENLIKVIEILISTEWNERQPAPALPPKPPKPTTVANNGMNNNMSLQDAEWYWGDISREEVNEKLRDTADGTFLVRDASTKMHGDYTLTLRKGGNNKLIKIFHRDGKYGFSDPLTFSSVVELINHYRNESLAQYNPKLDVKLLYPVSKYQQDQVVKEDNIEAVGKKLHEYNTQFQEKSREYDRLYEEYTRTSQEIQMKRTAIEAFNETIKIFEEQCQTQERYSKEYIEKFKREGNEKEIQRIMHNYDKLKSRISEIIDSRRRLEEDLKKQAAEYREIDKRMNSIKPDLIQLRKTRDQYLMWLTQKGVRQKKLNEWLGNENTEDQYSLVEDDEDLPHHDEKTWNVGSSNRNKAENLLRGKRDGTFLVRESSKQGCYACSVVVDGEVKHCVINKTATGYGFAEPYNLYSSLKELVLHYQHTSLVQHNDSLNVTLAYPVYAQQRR

In the case of `CN(C)C(=O)c1ccc(NC(=O)Nc2ccc(-c3nc(N4CCOCC4)c4ccc(-c5ccco5)cc4n3)cc2)cc1` [Example 51, 4-{3-[4-(7-furan-2-yl-4-morpholin-4-yl-quinazolin-2-yl)-phenyl]-ureido}-N,N-dimethyl-benzamide], the concentration for half-maximal inhibition (IC50) in assay [1] is over 1000 nM. Further, the inhibition at 30 mg/kg is over 50% in assay [2] (30 mg/kg po, at 2, 4 and 24 hours); 30 to 40% in assay [3] (Mus musculus, BT-474, 30 mg/kg po, at 4 and 24 hours). For the same compound, the “suppression of pS6RP in tumor tissue samples by Western blot” value in assay [3] is recorded as “significant suppression”. For the same compound, the “suppression of pAkt(T308) in tumor tissue samples by Western blot” value in assay [4] was “significant suppression”. Moreover, the “suppression of pAkt(5473) in tumor tissue samples by Western blot” value in assay [5] was “significant suppression”.
For the compound `CN(C)C(=O)c1ccc(NC(=O)Nc2ccc(-c3nc(N4CCOCC4)c4ccc(-c5cncnc5)cc4n3)cc2)cc1` [Example 1, N,N-Dimethyl-4-(3-{4-[4-morpholin-4-yl-7-pyrimidin-5-yl-quinazolin-2-yl)-phenyl]-ureido}-benzamide], the inhibition at 50 mg/kg in assay [6] (at 1 and 4 hours) is about 50%; in assay [2] (setting [8]) it was over 50%.
`CN(C)C(=O)c1ccc(NC(=O)Nc2ccc(-c3nc(N4CCOCC4)c4ccc(-c5cncnc5)cc4n3)cc2)c(F)c1` [Example 133, 3-fluoro-N,N-dimethyl-4-(3-(4-(4-morpholino-7-(pyrimidin-5-yl)quinazolin-2-yl)phenyl)ureido)-benzamide] displayed an inhibition at 50 mg/kg in assay [2] (50 mg/kg po, at 3 and 8 hours) of over 50%. In addition, the “suppression of pAkt(T308) by Western blot analysis” value in assay [7] is given as “significant suppression”.
On to `CN(C)C(=O)c1ccc(NC(=O)Nc2ccc(-c3nc(N4CCOCC4)c4ccc(-c5cccnc5F)cc4n3)cc2)c(F)c1` [Example 146, 3-fluoro-4-(3-(4-(7-(2-fluoropyridin-3-yl)-4-morpholino-quinazolin-2-yl)phenyl)ureido)-N,N-dimethyl-benzamide], for which, in assay [2] (50 mg/kg po, at 3 and 8 hours), the inhibition at 50 mg/kg was over 50%. Moreover, the “suppression of pAkt(T308) by Western blot analysis” value in assay [7] is given as “significant suppression”.
Turning to `Cc1ccc(-c2ccc3c(N4CCOCC4)nc(-c4ccc(NC(=O)Nc5ccc(C(=O)N(C)C)cc5)cc4)nc3c2)o1` [Example 2, N,N-Dimethyl-4-(3-{4-[7-(5-methyl-furan-2-yl)-4-morpholin-4-yl-quinazolin-2-yl]-phenyl}-ureido)-benzamide], the IC50 in assay [1] is over 1000 nM. Further, the inhibition at 50 mg/kg in assay [6] (at 4 and 24 hours) is 25 to 30%; in assay [2] (setting [8]) it was over 50%. Besides, in assay [3], the “suppression of pS6RP in tumor tissue samples by Western blot” value was “significant suppression”. Moreover, the “suppression of pAkt(T308) in tumor tissue samples by Western blot” value in assay [4] is recorded as “significant suppression”. Moreover, the “suppression of pAkt(5473) in tumor tissue samples by Western blot” value in assay [5] is given as “significant suppression”.
